Assay results as given in PMC10571957, “αV-Integrin-Dependent Inhibition of Glioblastoma Cell Migration, Invasion and Vasculogenic Mimicry by the uPAcyclin Decapeptide” (Cancers, 2023).

Tests used:
[1] = system: U87-MG cells; experiment: Wound healing assay, U87-MG; type: cell-based, human; settings: for residual space, % of the initial wound: 24 h (untreated 15%)
Procedure: The wound healing assay or scratch test was performed as previously reported. Briefly, 6 × 10^3 U87-MG cells were seeded in multiwell-12 plates containing culture inserts for live cell analysis (Ibidi, Gmbh, Martinsried, Germany) and grown to confluence in DMEM/10% FBS for 24 h. After removing the inserts, the cells were pre-treated for 40 min at 37 °C with uPAcyclin or diluents at the indicated concentrations, and then incubated in DMEM/3% FBS for 24 h. The images were taken using the Inverted Microscope Leica DMI6000 DFC 402 (Leica Microsystems, Milan, Italy). A total of 10 × 10^4 C6 cells were grown to confluence in 12-well plates, in the presence of DMEM/10% FBS. Then, the cell monolayers were wounded with a yellow tip, pre-incubated with uPAcyclin (10 pM and 100 nM) or diluents, and incubated in DMEM/2.5% FBS for 16 h. The images were obtained using the Inverted Axiovert 25 Microscope, equipped with the Zen 3.3 Software. To quantitate cell migration, a rectangle covering the wound edges is drawn on the T0 image and is further applied to the single photograms of each sample. The average margin distance is measured at three points and the results are expressed as percentage wound width of the T0 distance, taken as 100%.
Figure 5 Wound healing assay of U87-MG and C6 cells, in the presence of uPAcyclin. (A) U87-MG cells were grown to confluence in multiwell-12 plates with inserts, pre-incubated with uPAcyclin (10 pM or 100 nM) or diluents for 40 min at 37 °C, and then exposed to 3% FBS, in the presence of uPAcyclin or diluents, as reported. Images were taken at time 0 (T0) and 24 h (T24) and representative images are shown (50× total magnification, scale bar: 250 µm). […] (C) For both U87-MG and C6, the wound width at time 0 is taken as 100% and the wound width at T24 or T16 is calculated as relative to that (* p-value < 0.05; ** p-value < 0.005; *** p-value < 0.001).

[2] = system: HT1080 fibrosarcoma cells; settings: cited from earlier work
From the text: Thus, in the present work, we investigated the effects of the anti-migratory uPAcyclin decapeptide, binding to the αV integrin subunit. This cyclic decapeptide is derived from a non-catalytic region of the human urokinase (uPA) plasminogen activator. The growth factor domain (GFD, residues 1-49) and the connecting peptide region (CP, residues 132-158) confer to the full uPA a clearcut motogen activity. While the GFD binds to the urokinase receptor (uPAR), the CP region binds to the αV integrin subunit. […] The primary sequence of this cyclic peptide, derived from the connecting peptide region (CP) of the serin protease urokinase (uPA), is reported in Figure 1A. As assessed by a previous conformational analysis of uPAcyclin performed in water solution, about half of the peptide molecules ...

[3] = system: U251-MG cells; experiment: Vasculogenic mimicry (tube formation on Geltrex), U251-MG; type: cell-based, human; settings: 24 h
Procedure: The tube formation assay was performed in 96-well plates pre-coated with 50 µL/well of Geltrex^TM (Thermofisher, Scientific, Waltham, MA, USA), and polymerized for 30 min at 37 °C. Briefly, 3 × 10^4 U87-MG, 1.5 × 10^4 U251, and 1 × 10^4 C6 cells/100µL/well were plated onto Geltrex^TM and monitored at 37 °C for the indicated times. The specific effectors were included at time 0. The formation of vascular-like structures by Geltrex^TM-plated U87-MG and U251-MG cells was monitored for 24 h, whereas C6 cells were tested for 16 h. The evaluation of the branching point number, defined as the intersection of at least 3 tubes [24], was performed using the Inverted Microscope DMI Leica 6000 for the U87-MG and U251-MG cells and the Inverted Microscope Axiovert 25 for the C6 cells. At the indicated times, the number of “branching points” was assessed in 4/5 random fields using the ImageJ 1.52a Software.
Figure 8 Vascular mimicry formation and VE-cadherin expression inhibited by uPAcyclin in U251-MG cells. […] (B) The quantitation of the branching point number is described in the legend to Figure 6B. […] The densitometric quantitation of VE-cadherin bands is shown (right panel) (* p-value < 0.05; *** p-value < 0.001).

Ac-K^1P[ESPPEELK^10]-NH2 (sidechain bridge or staple) [uPAcyclin]
residual space, % of the initial wound ([1]; 10 pM): 30% | residual space, % of the initial wound ([1]; 100 nM): 60% | reduction of wound healing rate closure ([1]; abstract): 50% | lung metastases ([2]; mice injected with HT1080 fibrosarcoma cells, ref [29]): prevent lung metastases | metastatic lung spreading ([2]; nude mice, ref [25]): markedly inhibits metastatic lung spreading in nude mice | branching number per field decreased to ([3]; 1 nM): 20% | branching number per field decreased to ([3]; 100 nM): 15%
